Data on twelve molecules can be found in US6638947B2, “Carbocyclic and heterocyclic substituted semicarbazones and thiosemicarbazones and the use thereof” (Euro-Celtique S.A., priority 1997, dated 2003).

Structures are written as SMILES. Some results are limits rather than exact numbers.

The target in data set [1] is T1, human skeletal muscle Na^+ channel subunit (Homo sapiens, UniProt P35499).
T1 construct: expressed in transfected cells
Description: Na^+ current recordings in HEK-293 cells stably expressing human skeletal muscle Na^+ channel subunit. It is filed as cell-based. On the procedure:
The relative in vitro potency of these compounds were determined by their ability to inhibit human skeletal muscle Na^+ channel subunit stable expressed in HEK-293 cells. The techniques employed for Na^+ current recordings and analysis with the use of this cell line were similar to that described in example 36. These studies employ depolarizing prepulses of varying duration to allow drugs to bind, a brief (5 ms) repolarizing step to reprime unbound channels, followed by the test pulse (5 ms) to measure what proportion of channels are inhibited. The reduction in peak currents is then plotted as a function of prepulse duration and the time constant (τ) measured by monoexponential fit. A plot of 1/τ as a function of antagonist concentration then allows the macroscopic binding rates of the antagonists to be calculated. The anticonvulsant activities of additional compounds of the present invention were determined as described in example 38.

Data set [2] relates to voltage-sensitive Na^+ channels. Description: Electrophysiological assay: patch-clamp recordings of voltage-sensitive Na^+ currents in acutely dissociated hippocampal neurons. It is filed as cell-based, rat. On the procedure:
Electrophysiological Assay:
Cell preparation: Acute cultures of rat hippocampal neurons were prepared daily using a modification of procedures described previously (Kuo and Bean, Mol. Pharm. 46:716-725 (1994)). Briefly, hippocampi were isolated from 3-11 day old rat pup brains (Sprague-Dawley; Charles River) and were sectioned, by hand, into 0.5-1 mm thick transverse slices (Whittemore and Koerner, Eur. J. Pharm. 192:435-438 (1991)). Slices were incubated for at least 30 min at room temperature (20-24° C.) in an oxygenated medium (124 mM NaCl, 3.3 mM KCl, 2.4 mM MgSO4, 2.5 mM CaCl2, 1.2 mM KH2PO4, 26 mM NaHCO3, pH =7.4) continuously bubbled with 5% CO2/95% O2. […]
Patch-clamp recordings of voltage-sensitive Na^+ currents: Whole-cell voltage-clamp recordings were made using conventional patch-clamp technique (Hamill et al., Pfluegers Arch. 391:85-100 (1981)) with an Axopatch 200A amplifier (Axon Instruments, Foster City, Calif.). […] Currents were recorded at room temperature (22-25° C.), filtered at 5 kHz with 4-pole Bessel filter, digitized at 20-50-μs intervals, and stored using Digidata 1200 analog/digital interface with Pclamp6/Clampex software (Axon Instruments). […] The inhibitory potency of drugs was assessed by measuring reductions in the peak amplitude of Na^+ currents induced by increasing concentrations of compounds tested. […]
A general note: In patch-clamp work, channel activity is measured electrically.

For data set [3], the system named is site 2 of the Na^+ channel. It is filed as binding, rat.

T1 sequence (P35499 whole entry): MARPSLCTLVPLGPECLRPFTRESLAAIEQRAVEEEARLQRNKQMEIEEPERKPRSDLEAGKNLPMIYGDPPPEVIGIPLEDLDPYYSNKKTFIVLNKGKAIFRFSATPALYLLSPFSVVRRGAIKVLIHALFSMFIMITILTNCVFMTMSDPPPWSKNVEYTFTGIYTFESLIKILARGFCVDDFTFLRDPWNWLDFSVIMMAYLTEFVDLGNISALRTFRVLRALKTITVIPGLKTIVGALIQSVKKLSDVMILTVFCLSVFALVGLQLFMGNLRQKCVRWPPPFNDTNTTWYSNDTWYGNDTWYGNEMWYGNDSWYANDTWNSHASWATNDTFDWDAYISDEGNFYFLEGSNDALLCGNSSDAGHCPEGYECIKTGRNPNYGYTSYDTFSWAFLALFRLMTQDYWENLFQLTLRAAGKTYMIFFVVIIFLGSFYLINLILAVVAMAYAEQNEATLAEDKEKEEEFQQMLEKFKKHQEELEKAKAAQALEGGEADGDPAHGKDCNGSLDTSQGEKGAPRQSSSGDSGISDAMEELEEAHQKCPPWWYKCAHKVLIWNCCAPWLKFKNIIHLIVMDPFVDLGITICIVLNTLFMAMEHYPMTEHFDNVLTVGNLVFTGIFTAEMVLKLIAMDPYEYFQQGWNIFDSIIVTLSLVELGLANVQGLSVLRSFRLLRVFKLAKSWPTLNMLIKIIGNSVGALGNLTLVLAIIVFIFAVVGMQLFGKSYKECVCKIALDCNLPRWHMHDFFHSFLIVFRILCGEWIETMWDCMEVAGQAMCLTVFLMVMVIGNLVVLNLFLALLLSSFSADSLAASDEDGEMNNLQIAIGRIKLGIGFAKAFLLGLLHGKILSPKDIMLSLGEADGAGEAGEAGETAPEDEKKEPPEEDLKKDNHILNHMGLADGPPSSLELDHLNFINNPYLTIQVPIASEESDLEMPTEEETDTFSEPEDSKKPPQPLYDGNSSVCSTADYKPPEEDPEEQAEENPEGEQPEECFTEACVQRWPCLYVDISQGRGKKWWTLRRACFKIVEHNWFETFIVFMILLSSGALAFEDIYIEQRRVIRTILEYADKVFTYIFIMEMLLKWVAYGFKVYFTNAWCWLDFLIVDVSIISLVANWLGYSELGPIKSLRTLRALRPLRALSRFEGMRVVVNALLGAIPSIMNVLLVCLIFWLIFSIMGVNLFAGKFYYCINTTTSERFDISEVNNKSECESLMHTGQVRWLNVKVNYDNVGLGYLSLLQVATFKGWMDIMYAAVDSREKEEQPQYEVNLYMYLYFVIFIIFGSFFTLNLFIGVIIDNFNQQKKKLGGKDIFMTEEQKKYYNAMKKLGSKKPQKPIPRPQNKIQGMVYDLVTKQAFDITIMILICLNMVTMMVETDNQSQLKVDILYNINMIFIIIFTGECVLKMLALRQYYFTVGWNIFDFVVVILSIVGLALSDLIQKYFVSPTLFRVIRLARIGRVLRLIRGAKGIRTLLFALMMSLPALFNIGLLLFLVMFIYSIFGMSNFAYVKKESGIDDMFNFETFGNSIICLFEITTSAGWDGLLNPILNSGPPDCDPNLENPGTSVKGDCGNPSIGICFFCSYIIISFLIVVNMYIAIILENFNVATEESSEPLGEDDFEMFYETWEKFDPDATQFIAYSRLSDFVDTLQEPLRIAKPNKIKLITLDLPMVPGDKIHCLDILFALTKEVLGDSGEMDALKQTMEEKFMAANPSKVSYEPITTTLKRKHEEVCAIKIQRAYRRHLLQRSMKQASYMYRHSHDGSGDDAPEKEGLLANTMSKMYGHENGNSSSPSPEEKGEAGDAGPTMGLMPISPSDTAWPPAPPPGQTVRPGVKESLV

Usually melting point stands for the temperature of the solid-liquid transition. Consider `NC(=O)NN=Cc1ccc(Oc2ccc(Cl)cc2F)cc1` [4-(2-Fluoro-4-chlorophenoxy)benzaldehyde semicarbazone], for which the melting point lay in the range of 218 to 220 °C. In data set [1], the HsmNa^+ Ki came to 60 nM.
With `NC(=O)NN=Cc1ccc(Oc2ccc(F)cc2)cc1` [4-(4-Fluorophenoxy) benzaldehyde semicarbazone], the “effect on the overall shape of the Na^+ channel current-voltage relationship” value in data set [2] (measured at peak current) is “little effect”.
For `CN(N=Cc1ccc(Oc2ccc(F)cc2)c(F)c1)C(N)=O` [4-(4-Fluorophenoxy)-3-fluorobenzaldehyde 2′-methylsemicarbazone], the melting point was in the range of 169 to 172 °C.
With `NC(=O)NN=Cc1ccc(Oc2ccc(F)cc2)cc1` [4-(4-fluorophenoxy)benzaldehyde semicarbazone], the “inhibition of voltage-gated Na^+ currents” value in data set [2] (acutely dissociated rat hippocampal neurons) was “dose-dependent inhibition”.
Turning to `NC(=O)NN=Cc1ccc(Oc2ccc3c(c2)CCC3)cc1` [4-(5-indanoxy)benzaldehyde semicarbazone, 4-(5-Indanoxy)benzaldehyde semicarbazone], in data set [1], the HsmNa^+ Ki was 40 nM.
Regarding `NC(=O)NN=Cc1ccc(OCC2CCCCC2)cc1` [Example 10, 4-(Cyclohexylmethoxy)benzaldehyde semicarbazone], the melting point is 218 to 219 °C.
Same read-out and setting: for `NC(=O)NN=Cc1ccc(OC2CCOCC2)cc1` [Example 12, 4-(4-Tetrahydropyranoxy)benzaldehyde semicarbazone] the value was 208 to 209 °C.
Same read-out and setting: for `NC(=O)NN=Cc1ccc(Oc2ccc([N+](=O)[O-])cc2)cc1` [Example 15, 4-(4-Nitrophenoxy)benzaldehyde semicarbazone] the value was 221 to 222 °C; for `CCCCCC(CC)Oc1ccc(C=NNC(N)=O)cc1` (stereo not shown) [Example 32b, 4-(3-Octoxy)benzaldehyde semicarbazone], 45 °C.
`NC(=O)NN=Cc1ccc(Cc2ccccc2)cc1` [Example 33b, 4-Benzylbenzaldehyde semicarbazone] displayed a melting point of 118 to 120 °C.
On the same count and under the same terms, the same measure for `NC(=O)NN=Cc1ccc(Oc2ccc(C(F)(F)F)cc2)cc1` [Example 34c, 4-(4-Trifluoromethylphenoxy)benzaldehyde semicarbazone]: 119 to 122 °C.
What is called IC50 is the point on the concentration scale where inhibition reaches its midpoint. The low end stands for greater potency in that assay, the high end for weaker potency in that assay. Take `NC1=N[C@H](O)[C@H]2[C@H]3O[C@]4(O)O[C@@H]([C@@H](O)[C@@]2(N1)[C@@H]4O)[C@]3(O)CO` [Tetrodotoxin]: the half-inhibitory concentration (IC50) in data set [3] was above 100000 nM.
